Experimental data published in article PMC8540642, “Antineoplastic Activity of Rhus trilobata Nutt. (Anacardiaceae) against Ovarian Cancer and Identification of Active Metabolites in This Pathology” (Plants, 2021).
Values after ≈ are worked out from the molar mass of the structure shown. Values joined by “and” are separate entries in the source; they are usually repeats but may differ in a detail not shown here. Equal entries are not always repeated. Where two headings read alike, the source gives them in different places.

Key:
SKOV-3 cells = experiment: MTT cell viability, dose-response curves 24 h; type: cell-based, human; settings: for IC50: read-out: IC50 (half-maximal inhibitory concentration), SKOV-3
Experimental: (§1) Cultures (2 × 10^4 cells/well) were seeded with 200 μL of supplemented medium (Sigma®) in 96-well plates (Corning®, Corning, NY, USA) and incubated for 24 h. Cell treatments were 5-200 μg/mL of samples/controls for 24 h. At the end of the treatments, we added MTT (5 mg/mL, Sigma®) for 4 h of incubation, and optical density was measured at λ = 590 nm in a VariosKan® Flash (Thermo-Scientific®, Waltham, MA, USA). The half-maximal inhibitory concentration (IC50) was determined.

BEAS-2B cells = experiment: MTT cell viability, dose-response curves 24 h; type: cell-based
Experimental: as §1

CACO-2 cells = experiment: MTT cell viability, dose-response curves 24 h; type: cell-based; settings: for IC50: read-out: IC50 (half-maximal inhibitory concentration), CACO-2
Experimental: as §1

CHO-K1 cells = experiment: MTT cell viability, dose-response curves 24 h; type: cell-based; settings: for IC50: read-out: IC50 (half-maximal inhibitory concentration), CHO-K1
Experimental: as §1

OVCAR-3 cells = experiment: MTT cell viability, dose-response curves 24 h; type: cell-based; settings: for IC50: read-out: IC50 (half-maximal inhibitory concentration), OVCAR-3
Experimental: as §1

KB cell = system: KB cell; set-up: method as in PMID 4437313; settings: Ga isolated from RHTR leaves; cited from earlier work
[1] = system: ovarian cancer tumoral lesions; set-up: method as in PMID 32276584; settings: 50 mg/kg, peritumoral route; cited from earlier work
[2] = Homo sapiens, SK-OV-3, MTT, 24 h
[3] = Homo sapiens, SK-OV-3, MTT, 24 h, value in brackets
[4] = Homo sapiens, BEAS-2B, MTT, read-out: IC50 (half-maximal inhibitory concentration), BEAS-2B
[5] = Homo sapiens, BEAS-2B, MTT, value in brackets, read-out: IC50 (half-maximal inhibitory concentration), BEAS-2B
[6] = Homo sapiens, Caco-2, MTT, 24 h
[7] = Homo sapiens, Caco-2, MTT, 24 h, value in brackets
[8] = Cricetulus griseus, CHO-K1, 24 h, MTT, 24 h
[9] = Cricetulus griseus, CHO-K1, 24 h, MTT, 24 h, value in brackets
[10] = Homo sapiens, OVCAR-3, MTT, 24 h
[11] = Homo sapiens, OVCAR-3, MTT, 24 h, value in brackets

| Compound | IC50 (SKOV-3 cells; [2]) [mg/L] | IC50 (SKOV-3 cells; [3]) [µM] | IC50 (BEAS-2B cells; [4]) [mg/L] | IC50 (BEAS-2B cells; [5]) [µM] | IC50 (CACO-2 cells; [6]) [mg/L] | IC50 (CACO-2 cells; [7]) [µM] | IC50 (CHO-K1 cells; [8]) [mg/L] | IC50 (CHO-K1 cells; [9]) [µM] | IC50 (OVCAR-3 cells; [10]) [mg/L] | IC50 (OVCAR-3 cells; [11]) [µM] | IC50 (half-maximal inhibitory concentration), BEAS-2B (BEAS-2B cells; MTT) [µg/mL] | IC50 (half-maximal inhibitory concentration), CHO-K1 (CHO-K1 cells; MTT, 24 h) [mg/L] | also measured |
| --- | --- | --- | --- | --- | --- | --- | --- | --- | --- | --- | --- | --- | --- |
| O=c1c(O)c(-c2ccc(O)c(O)c2)oc2cc(O)cc(O)c12 [Compound 9, quercetin] | > 200 | > 662 | 189 | 625 | 150 | 496 | 127 | 420 | 200 | 662 | – | – | – |
| C[C@@H]1O[C@@H](Oc2c(-c3ccc(O)c(O)c3)oc3cc(O)cc(O)c3c2=O)[C@H](O)[C@H](O)[C@H]1O [Compound 12, quercitrin] | – | – | – | – | – | – | – | – | – | – | – | – | IC50 (SKOV-3 cells; Homo sapiens, SK-OV-3, 24 h): > 200 µg/mL and > 446 µM; IC50 (BEAS-2B cells; Homo sapiens, BEAS-2B, read-out: IC50 (half-maximal inhibitory concentration), BEAS-2B): > 200 µg/mL and > 446 µM; IC50 (CACO-2 cells; Homo sapiens, Caco-2, 24 h): 179 µg/mL and 399 µM; IC50 (CHO-K1 cells; Cricetulus griseus, CHO-K1, 24 h): > 200 µg/mL and > 446 µM; IC50 (OVCAR-3 cells; Homo sapiens, OVCAR-3, 24 h): > 200 µg/mL and > 446 µM |
| O=c1c(O)c(-c2ccc(O)c(O)c2)oc2cc(O)ccc12 [Compound 16, fisetin] | 200 | 699 | 50 | 175 | 100 | 349 | 46 | 161 | 200 | 699 | – | – | – |
| O=C(O)c1cc(O)c(O)c(O)c1 [Gallic acid, gallic acid] | 50 | 294 | – | 147 | 25 | 147 | ~150 | 588 | 43 | 253 | 25 (≈ 147 µM) | 100 (≈ 588 µM) | IC50 (half-maximal inhibitory concentration), BEAS-2B (BEAS-2B cells; MTT, listed as Ga): ~ 150 μg/mL; IC50, KB cell viability (KB cell): 3.1 mg/L (≈ 18.2 µM); inhibition of tumoral lesions (of progression) [1]: 50% |
| myricitrin [Compound 6] | – | – | – | – | – | – | – | – | – | – | 160 | 94 | IC50 (half-maximal inhibitory concentration), SKOV-3 (SKOV-3 cells; MTT, 24 h): 197 mg/L; IC50 (SKOV-3 cells; MTT, 24 h, value in brackets): 424 µM; IC50 (BEAS-2B cells; read-out: IC50 (half-maximal inhibitory concentration), BEAS-2B, MTT, value in brackets): 344 µM; IC50 (half-maximal inhibitory concentration), CACO-2 (CACO-2 cells; MTT, 24 h): > 200 mg/L; IC50 (CACO-2 cells; MTT, 24 h, value in brackets): > 431 µM; IC50 (CHO-K1 cells; MTT, 24 h, value in brackets): 202 µM; IC50 (half-maximal inhibitory concentration), OVCAR-3 (OVCAR-3 cells; MTT, 24 h): 200 mg/L; IC50 (OVCAR-3 cells; MTT, 24 h, value in brackets): 431 µM |
